Like-named read-outs stand apart in the source and are kept apart here.
What was measured:
[1] = Eosin-Y release and retention in thiol-ene hydrogels; assay type: physicochemical; settings: for eosin-Y retention in thiol-ene hydrogels: after 48 hours of swelling
Protocol: EXAMPLE. Eosin-Y retention: PEG4NB-DTT hydrogel discs (8 mm in diameter and 1 mm in height) are fabricated. Immediately after polymerization, each hydrogel (8 mm in diameter and 1 mm in height) is immersed into a scintillation vial containing 2 mL of ddH2O. Three separate samples are prepared per experimental condition. These scintillation vials are capped tightly and stored at 37° C. on an orbital shaker. At specific time points, these vials are swirled manually to ensure homogeneous mix and 200 μL of solution is transferred to a well of a transparent 96-well plate. The buffer is changed at every time point. The absorbance (at 515 nm) of the collected samples is determined using a microplate reader (Biotek). Eosin-Y retention was calculated by generating a standard curve prepared from a series of known eosin-Y concentrations (0.02 mM being the highest).

[2] = cited from earlier work
[3] = cited from earlier work; remark: listed apart in the source
[4] = post-gelation, pH 7.4 PBS, FIG. 10

Structure (SMILES) | time in which most of the eosin-Y was released from the hydrogel [1, 4] [h] | time to complete release of eosin-Y from the hydrogel [1, 4] [h] | eosin-Y retention in thiol-ene hydrogels ([1]; starting eosin-Y concentration 0.1 mM) [µmol] | eosin-Y retention in thiol-ene hydrogels ([1]; starting eosin-Y concentration 2.0 mM) [µmol] | water solubility [2] [wt %] | molar absorptivity (ε) ([3]; at 365 nm) [M⁻¹ cm⁻¹] | molar absorptivity (ε) ([3]; at 405 nm) [M⁻¹ cm⁻¹]
O=C([O-])c1ccccc1-c1c2cc(Br)c(=O)c(Br)c-2oc2c(Br)c([O-])c(Br)cc12.[Na+].[Na+] [eosin-Y, Eosin-Y disodium salt] | 0.5 | 6 | ~0.004 | ~0.03 |  |  | 
CC(C)(O)C(=O)c1ccc(OCCO)cc1 [I-2959] |  |  |  |  | < 0.5 | < 10 | 
Cc1cc(C)c(C(=O)P(=O)([O-])c2ccccc2)c(C)c1.[Li+] [LAP, lithium arylphosphinate] |  |  |  |  | > 5 | ~200 | ~30

From patent US9364543B2, “Visible light curable hydrogels and methods for using” (Indiana University Research and Technology Corporation, priority 2012, dated 2016)
